Usually IC50 stands for the concentration at which inhibition is half-maximal. The term EC50 denotes the midpoint of the concentration-response curve.

This note sets out measurements from ChEMBL document CHEMBL5120960, “Unveiling the Structure-Activity Relationships at the Orthosteric Binding Site of P2X Ion Channels: The Route to Selectivity” (J Med Chem, 2022).

The structures appear in SMILES notation.

Common to all, as to format: cell-based
In assay [1] the target is T1, P2X purinoceptor 7 (Homo sapiens, UniProt Q99572).
T1 sequence (Q99572 whole entry): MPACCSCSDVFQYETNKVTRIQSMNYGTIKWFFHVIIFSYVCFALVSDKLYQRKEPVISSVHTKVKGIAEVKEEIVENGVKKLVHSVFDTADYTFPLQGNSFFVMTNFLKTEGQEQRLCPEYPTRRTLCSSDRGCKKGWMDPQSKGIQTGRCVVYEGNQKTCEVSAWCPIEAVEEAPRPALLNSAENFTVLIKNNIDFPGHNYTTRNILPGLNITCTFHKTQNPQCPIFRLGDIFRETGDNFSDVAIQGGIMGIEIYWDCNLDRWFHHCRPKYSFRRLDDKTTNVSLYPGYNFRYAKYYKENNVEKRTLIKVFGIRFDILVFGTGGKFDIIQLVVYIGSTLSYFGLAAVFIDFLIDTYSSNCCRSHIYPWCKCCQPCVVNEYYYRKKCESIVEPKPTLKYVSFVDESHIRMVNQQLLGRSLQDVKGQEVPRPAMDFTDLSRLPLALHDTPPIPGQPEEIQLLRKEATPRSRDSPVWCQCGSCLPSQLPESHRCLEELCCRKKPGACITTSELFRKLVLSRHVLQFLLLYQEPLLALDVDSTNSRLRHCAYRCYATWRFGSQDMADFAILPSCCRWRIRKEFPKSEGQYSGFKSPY
The experiment in a line: Antagonist activity at human P2X7R expressing HEK293 cells assessed as reduction in intracellular Ca2+ influx pretreated with Fluo-4 for 1 hr followed by compound addition and further incubated for 30 mins in presence of ATP by multimode plate reader analysis.

Assay [2] addresses T1, P2X purinoceptor 7. Put plainly: […] activity at human P2X7R expressing HEK293 cells assessed as reduction in intracellular Ca2+ influx pretreated with Fluo-4 for 1 hr followed by compound addition and further incubated for 30 mins in presence of ATP by multimode plate reader analysis.
Assay [3] concerns the target T2, P2X purinoceptor 1 (Homo sapiens, UniProt P51575).
T2 sequence (P51575 whole entry): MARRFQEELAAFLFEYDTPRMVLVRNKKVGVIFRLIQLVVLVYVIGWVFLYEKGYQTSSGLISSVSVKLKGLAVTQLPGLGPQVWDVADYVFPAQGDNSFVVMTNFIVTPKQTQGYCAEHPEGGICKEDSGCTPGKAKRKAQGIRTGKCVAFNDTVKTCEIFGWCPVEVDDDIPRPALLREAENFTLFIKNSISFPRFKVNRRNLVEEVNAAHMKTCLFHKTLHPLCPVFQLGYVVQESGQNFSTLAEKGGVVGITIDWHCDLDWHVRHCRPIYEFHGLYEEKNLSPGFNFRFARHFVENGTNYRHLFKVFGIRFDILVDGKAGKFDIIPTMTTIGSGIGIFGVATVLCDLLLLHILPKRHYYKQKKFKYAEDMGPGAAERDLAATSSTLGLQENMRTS
Put plainly: Antagonist activity at human P2X1R expressing CHO cells assessed as reduction in intracellular Ca2+ influx pretreated with Fluo-4 for 1 hr followed by compound addition and further incubated for 30 mins in presence of ATP by multimode plate reader analysis.

Assay [4] deals with T3, P2X purinoceptor 4 (Homo sapiens, UniProt Q99571).
T3 sequence (Q99571 whole entry): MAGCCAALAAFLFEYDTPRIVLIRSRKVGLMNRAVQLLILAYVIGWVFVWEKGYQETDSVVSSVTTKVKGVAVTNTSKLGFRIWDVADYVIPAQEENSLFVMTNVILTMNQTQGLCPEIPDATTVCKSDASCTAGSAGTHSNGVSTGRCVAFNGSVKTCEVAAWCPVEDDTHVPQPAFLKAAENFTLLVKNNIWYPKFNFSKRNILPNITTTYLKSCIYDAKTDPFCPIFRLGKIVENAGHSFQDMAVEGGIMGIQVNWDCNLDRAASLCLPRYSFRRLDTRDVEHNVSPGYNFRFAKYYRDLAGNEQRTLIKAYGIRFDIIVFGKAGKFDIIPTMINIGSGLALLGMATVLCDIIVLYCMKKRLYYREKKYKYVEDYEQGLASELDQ
Put plainly: […] activity at human P2X4R expressing HEK293 cells assessed as reduction in intracellular Ca2+ influx pretreated with Fluo-4 for 1 hr followed by compound addition and further incubated for 30 mins in presence of ATP by multimode plate reader analysis.

Assay [5] concerns the target T4, P2X2/P2X3 heterotrimeric receptor (Homo sapiens, UniProt P56373+Q9UBL9).
T4 sequence (Q9UBL9 whole entry): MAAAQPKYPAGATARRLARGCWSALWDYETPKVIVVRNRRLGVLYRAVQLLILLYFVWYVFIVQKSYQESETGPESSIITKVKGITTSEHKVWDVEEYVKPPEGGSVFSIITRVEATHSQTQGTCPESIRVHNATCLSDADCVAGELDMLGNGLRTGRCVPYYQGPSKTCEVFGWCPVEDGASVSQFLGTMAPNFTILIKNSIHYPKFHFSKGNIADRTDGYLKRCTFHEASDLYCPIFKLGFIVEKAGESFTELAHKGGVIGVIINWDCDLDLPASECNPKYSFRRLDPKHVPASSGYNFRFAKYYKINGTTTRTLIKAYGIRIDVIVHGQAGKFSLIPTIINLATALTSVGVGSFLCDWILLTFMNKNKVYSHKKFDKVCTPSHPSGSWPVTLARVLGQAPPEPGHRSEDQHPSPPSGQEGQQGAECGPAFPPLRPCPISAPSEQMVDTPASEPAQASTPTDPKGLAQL
T4 sequence (P56373 whole entry): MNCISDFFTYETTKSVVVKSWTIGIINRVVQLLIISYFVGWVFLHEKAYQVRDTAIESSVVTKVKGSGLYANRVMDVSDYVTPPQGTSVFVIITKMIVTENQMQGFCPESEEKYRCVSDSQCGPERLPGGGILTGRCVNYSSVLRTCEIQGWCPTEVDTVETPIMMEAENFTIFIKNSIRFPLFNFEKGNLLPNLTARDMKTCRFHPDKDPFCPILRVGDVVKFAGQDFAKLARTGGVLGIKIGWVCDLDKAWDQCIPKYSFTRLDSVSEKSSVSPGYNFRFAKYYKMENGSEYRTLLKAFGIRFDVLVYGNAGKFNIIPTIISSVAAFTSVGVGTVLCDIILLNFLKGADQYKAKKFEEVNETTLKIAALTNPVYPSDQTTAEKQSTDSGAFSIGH
Put plainly: Antagonist activity at human P2X2R/P2X3R expressing CHO cells assessed as reduction in intracellular Ca2+ influx pretreated with Fluo-4 for 1 hr followed by compound addition and further incubated for 30 mins in presence of ATP by multimode plate reader analysis.

Assay [6] deals with T2, P2X purinoceptor 1. Put plainly: […] activity at human P2X1R expressing CHO cells assessed as reduction in intracellular Ca2+ influx pretreated with Fluo-4 for 1 hr followed by compound addition and further incubated for 30 mins in presence of ATP by multimode plate reader analysis.
Assay [7] addresses T1, P2X purinoceptor 7. The experiment in a line: […] activity at human P2X7R expressed in HEK293 cells assessed as reduction in YO-PRO-1 iodide dye uptake preincubated for 30 mins followed by YO-PRO-1 iodide addition and measured after 2 hrs by fluorescence based multimode plate reader analysis.
The target in assay [8] is T5, P2X purinoceptor 3 (Homo sapiens, UniProt P56373).
T5 sequence (P56373 whole entry): T4 sequence (P56373 whole entry)
Put plainly: […] activity at human P2X3R expressing CHO cells assessed as reduction in intracellular Ca2+ influx pretreated with Fluo-4 for 1 hr followed by compound addition and further incubated for 30 mins in presence of ATP by multimode plate reader analysis.

In assay [9] the target is T6, P2X purinoceptor 2 (Homo sapiens, UniProt Q9UBL9).
T6 sequence (Q9UBL9 whole entry): T4 sequence (Q9UBL9 whole entry)
Put plainly: […] activity at human P2X2R expressing CHO cells assessed as reduction in intracellular Ca2+ influx pretreated with Fluo-4 for 1 hr followed by compound addition and further incubated for 30 mins in presence of ATP by multimode plate reader analysis.

The target of assay [10] is T6, P2X purinoceptor 2. Put plainly: Antagonist activity at human P2X2R expressing CHO cells assessed as reduction in intracellular Ca2+ influx pretreated with Fluo-4 for 1 hr followed by compound addition and further incubated for 30 mins in presence of ATP by multimode plate reader analysis.
The target of assay [11] is T3, P2X purinoceptor 4. The experiment in a line: Antagonist activity at human P2X4R expressing HEK293 cells assessed as reduction in intracellular Ca2+ influx pretreated with Fluo-4 for 1 hr followed by compound addition and further incubated for 30 mins in presence of ATP by multimode plate reader analysis.
For assay [12], the target named is T4, P2X2/P2X3 heterotrimeric receptor. Put plainly: […] activity at human P2X2R/P2X3R expressing CHO cells assessed as reduction in intracellular Ca2+ influx pretreated with Fluo-4 for 1 hr followed by compound addition and further incubated for 30 mins in presence of ATP by multimode plate reader analysis.
The target of assay [13] is T5, P2X purinoceptor 3. Put plainly: Antagonist activity at human P2X3R expressing CHO cells assessed as reduction in intracellular Ca2+ influx pretreated with Fluo-4 for 1 hr followed by compound addition and further incubated for 30 mins in presence of ATP by multimode plate reader analysis.

`COc1ccc(C(=O)O[C@@H]2[C@H](OC(=O)c3ccc(OC)cc3)[C@@H](COP(=O)(O)OP(=O)(O)OP(=O)(O)O)O[C@H]2n2cnc3c(N)ncnc32)cc1`: the IC50 (on P2X purinoceptor 7 [1]; on P2X purinoceptor 7 [2]; on P2X purinoceptor 1 [3]; at P2X purinoceptor 4 [4]; in assay [5]; at P2X purinoceptor 1 [6]) was above 100 µM in each case. The IC50 (at P2X purinoceptor 7 [7]; at P2X purinoceptor 3 [8]; on P2X purinoceptor 2 [9]; on P2X purinoceptor 2 [10]; at P2X purinoceptor 4 [11]; in assay [12]) was above 100 µM in each case. The IC50 at P2X purinoceptor 3 [13] is above 100 µM.

`Nc1ncnc2c1ncn2[C@@H]1O[C@H](COP(=O)(O)OP(=O)(O)OP(=O)(O)O)[C@@H](OC(=O)c2cccc3ccccc23)[C@H]1OC(=O)c1cccc2ccccc12`: the IC50 on P2X purinoceptor 7 [1] was above 100 µM; at P2X purinoceptor 1 [3], 15.8 µM; in assay [5], 11.5 µM; at P2X purinoceptor 2 [10] it was 10 µM; at P2X purinoceptor 4 [11], 6.31 µM; on P2X purinoceptor 3 [13], 18.6 µM. For the same compound, the EC50 at P2X purinoceptor 7 [2] was 16.6 µM; on P2X purinoceptor 4 [4], above 100 µM; at P2X purinoceptor 1 [6] it was above 100 µM; on P2X purinoceptor 7 [7], 22.4 µM; at P2X purinoceptor 3 [8] it was above 100 µM; on P2X purinoceptor 2 [9], above 100 µM. In assay [12], the half-maximal effective concentration (EC50) is above 100 µM.

Consider `Nc1ncnc2c1ncn2[C@@H]1O[C@H](COP(=O)(O)OP(=O)(O)OP(=O)(O)O)[C@@H](OC(=O)c2ccccc2)[C@H]1OC(=O)c1ccccc1`, for which the half-maximal inhibitory concentration (IC50) was above 100 µM on P2X purinoceptor 7 [1]; above 100 µM on P2X purinoceptor 1 [3]; above 100 µM in [5]; 26.3 µM on P2X purinoceptor 2 [10]; above 100 µM at P2X purinoceptor 4 [11]; above 100 µM on P2X purinoceptor 3 [13]. In addition, the EC50 on P2X purinoceptor 7 [2] is above 100 µM; at P2X purinoceptor 4 [4] it was 1.48 µM; at P2X purinoceptor 1 [6], above 100 µM; at P2X purinoceptor 7 [7] it was above 100 µM; on P2X purinoceptor 3 [8] it was above 100 µM; at P2X purinoceptor 2 [9], above 100 µM. Further, the EC50 in assay [12] is 1.2 µM.
